The experiment relates to SPT mRNA. Put plainly: Serine palmitoyltransferase (SPT) mRNA expression promotive action test. The experiment is classed as cell-based, human. The note with it: NHEK, 24 hours, corrected with GAPDH. The procedure:
Normal human neonatal epidermal keratinocytes (NHEK) were precultured using normal human epidermal keratinocyte growth medium (KGM), and the cells were collected by a trypsin treatment. The collected cells were diluted with KGM to a cell density of 15×10^4 cells/mL, then seeded with 2 mL portions in a 6-well plate (30×10^4 cells/well), and cultured overnight under conditions of 37° C. and 5% CO2. After culturing, the medium was replaced with normal human epidermal keratinocyte basal medium (KBM, the above KGM without addition of growth additives (hEGF, BPE, insulin, antibacterial agents, hydrocortisone)), and culturing was further performed for 24 hours.
After culturing for 24 hours, the medium was removed, and 2 mL of the test sample (Sample 1, see Table 16 below for final concentration) dissolved in KBM was added to each well, and culturing was performed under conditions of 37° C. and 5% CO2 for 24 hours. As a control, culturing was performed in the same manner using KBM to which no sample was added. After culturing, the medium was removed, total RNA was extracted using ISOGEN II (available from NIPPON GENE CO., LTD.), each RNA amount was measured using a spectrophotometer, and the total RNA was prepared so as to be 150 ng/μL.
For SPT and GAPDH as an internal standard, the expression levels of mRNA were measured using the above total RNA as a template. […]

As to `O=C(O)CCc1ccc(O)c(O)c1` [Sample 1, 3,4-Dihydroxyhydrocinnamic acid], the “SPT mRNA expression promotion rate” value reads like this: (25 μmol/L) 114.6%; (100 μmol/L) 149.9%.

For the origin of these results see patent publication US20240252456A1, “ORAL COMPOSITION, SKIN COSMETIC AND HAIR COSMETIC” (MARUZEN PHARMACEUTICALS CO., LTD., priority 2021, published 2024).
